Numbers after ± are expanded uncertainties.
Key:
[1] = molar heat capacity at constant pressure; conditions: 101.33 kPa
[2] = Molar enthalpy of transition or fusion; conditions: Crystal
[3] = for molar entropy: 101.33 kPa

[Cs+].[F-] [cesium fluoride (CsF)]
Conditions	molar entropy, [3] [J/K/mol]	molar heat capacity at constant pressure, [1] [J/K/mol]
5 K, Crystal, Vacuum adiabatic calorimetry	0.08 ± 0.02	0.16 ± 0.01
10 K, Crystal, Vacuum adiabatic calorimetry	0.49 ± 0.02	1.3 ± 0.05
15 K, Crystal, Vacuum adiabatic calorimetry	1.54 ± 0.03	4.39 ± 0.18
20 K, Crystal, Vacuum adiabatic calorimetry	3.34 ± 0.04	8.57 ± 0.35
25 K, Crystal, Vacuum adiabatic calorimetry	5.65 ± 0.05	12.33 ± 0.5
30 K, Crystal, Vacuum adiabatic calorimetry	8.2 ± 0.09	15.77 ± 0.63
35 K, Crystal, Vacuum adiabatic calorimetry	10.86 ± 0.09	18.9 ± 0.76
40 K, Crystal, Vacuum adiabatic calorimetry	13.57 ± 0.1	21.75 ± 0.87
45 K, Crystal, Vacuum adiabatic calorimetry	16.28 ± 0.11	24.36 ± 0.98
50 K, Crystal, Vacuum adiabatic calorimetry	18.97 ± 0.12	26.72 ± 1.1
60 K, Crystal, Vacuum adiabatic calorimetry	24.21 ± 0.13	30.78 ± 1.2
70 K, Crystal, Vacuum adiabatic calorimetry	29.21 ± 0.15	34.08 ± 1.4
80 K, Crystal, Vacuum adiabatic calorimetry	33.94 ± 0.16	36.74 ± 0.74
90 K, Crystal, Vacuum adiabatic calorimetry	38.4 ± 0.36	38.87 ± 0.8
100 K, Crystal, Vacuum adiabatic calorimetry	42.59 ± 0.36	40.59 ± 0.83
110 K, Crystal, Vacuum adiabatic calorimetry	46.53 ± 0.37	42.2 ± 0.86
120 K, Crystal, Vacuum adiabatic calorimetry	50.27 ± 0.38	43.53 ± 0.89
130 K, Crystal, Vacuum adiabatic calorimetry	53.8 ± 0.38	44.7 ± 0.91
140 K, Crystal, Vacuum adiabatic calorimetry	57.15 ± 0.39	45.59 ± 0.93
150 K, Crystal, Vacuum adiabatic calorimetry	60.32 ± 0.39	46.3 ± 0.94
160 K, Crystal, Vacuum adiabatic calorimetry	63.33 ± 0.4	46.86 ± 0.95
170 K, Crystal, Vacuum adiabatic calorimetry	66.18 ± 0.4	47.31 ± 0.96
180 K, Crystal, Vacuum adiabatic calorimetry	68.9 ± 0.4	47.69 ± 0.97
190 K, Crystal, Vacuum adiabatic calorimetry	71.49 ± 0.41	48 ± 0.98
200 K, Crystal, Vacuum adiabatic calorimetry	73.95 ± 0.41	48.28 ± 0.98
210 K, Crystal, Vacuum adiabatic calorimetry	76.32 ± 0.41	48.51 ± 0.99
220 K, Crystal, Vacuum adiabatic calorimetry	78.58 ± 0.42	48.73 ± 0.99
230 K, Crystal, Vacuum adiabatic calorimetry	80.75 ± 0.42	48.93 ± 0.99
240 K, Crystal, Vacuum adiabatic calorimetry	82.84 ± 0.42	49.12 ± 1
250 K, Crystal, Vacuum adiabatic calorimetry	84.84 ± 0.43	49.3 ± 1
260 K, Crystal, Vacuum adiabatic calorimetry	86.78 ± 0.43	49.48 ± 1
270 K, Crystal, Vacuum adiabatic calorimetry	88.65 ± 0.43	49.66 ± 1
280 K, Crystal, Vacuum adiabatic calorimetry	90.46 ± 0.44	49.84 ± 1
290 K, Crystal, Vacuum adiabatic calorimetry	92.21 ± 0.44	50.03 ± 1
298.15 K, Crystal, Drop calorimetry	93.6 ± 4.2	50.19 ± 1.5
298.15 K, Crystal, Vacuum adiabatic calorimetry	93.6 ± 0.44	50.19 ± 1
300 K, Crystal, Drop calorimetry	93.91 ± 4.2	50.23 ± 1.5
300 K, Crystal, Vacuum adiabatic calorimetry	93.91 ± 0.44	50.22 ± 1
310 K, Crystal, Vacuum adiabatic calorimetry	95.56 ± 0.44	50.42 ± 1
320 K, Crystal, Vacuum adiabatic calorimetry	97.17 ± 0.45	50.63 ± 1
330 K, Crystal, Vacuum adiabatic calorimetry	98.73 ± 0.45	50.86 ± 1
340 K, Crystal, Vacuum adiabatic calorimetry	100.25 ± 0.45	51.09 ± 1
350 K, Crystal, Drop calorimetry	101.76 ± 4.6	51.72 ± 1.6
350 K, Crystal, Vacuum adiabatic calorimetry	101.74 ± 0.45	51.33 ± 1
400 K, Crystal, Drop calorimetry	108.79 ± 4.9	53.82 ± 1.6
450 K, Crystal, Drop calorimetry	115.27 ± 5.2	56.28 ± 1.7
500 K, Crystal, Drop calorimetry	121.34 ± 5.5	58.95 ± 1.8
550 K, Crystal, Drop calorimetry	127.09 ± 5.7	61.78 ± 1.9
600 K, Crystal, Drop calorimetry	132.59 ± 6	64.69 ± 2
650 K, Crystal, Drop calorimetry	137.88 ± 6.2	67.68 ± 2.1
700 K, Crystal, Drop calorimetry	143.01 ± 6.4	70.72 ± 2.1
750 K, Crystal, Drop calorimetry	148 ± 6.7	73.8 ± 2.2
800 K, Crystal, Drop calorimetry	152.86 ± 6.9	76.9 ± 2.3
850 K, Crystal, Drop calorimetry	157.61 ± 7.1	80.02 ± 2.4
900 K, Crystal, Drop calorimetry	162.28 ± 7.3	83.17 ± 2.5
950 K, Crystal, Drop calorimetry	166.86 ± 7.5	86.32 ± 2.6
973 K, Crystal, Drop calorimetry	168.94 ± 7.6	87.78 ± 2.7
973 K, Liquid, Drop calorimetry	191.65 ± 8.6	70.56 ± 2.1
1000 K, Liquid, Drop calorimetry	193.58 ± 8.7	70.56 ± 2.1
1050 K, Liquid, Drop calorimetry	197.03 ± 8.9	70.56 ± 2.1
1100 K, Liquid, Drop calorimetry	200.31 ± 9	70.56 ± 2.1
1150 K, Liquid, Drop calorimetry	203.44 ± 9.2	70.56 ± 2.1
1200 K, Liquid, Drop calorimetry	206.45 ± 9.3	70.56 ± 2.1
1250 K, Liquid, Drop calorimetry	209.33 ± 9.4	70.56 ± 2.1
1300 K, Liquid, Drop calorimetry	212.1 ± 9.5	70.56 ± 2.1
1350 K, Liquid, Drop calorimetry	214.76 ± 9.7	70.56 ± 2.1
1400 K, Liquid, Drop calorimetry	217.32 ± 9.8	70.56 ± 2.1

[2]
Conditions	Molar enthalpy of transition or fusion [kJ/mol]
DSC	22.1 ± 4
enthalpy increment functions	21.4 ± 6

Conditions	Normal melting temperature [°C]
[3], Crystal, DTA	699.6 ± 0.5

Reference: the NIST ThermoML archive (doi:10.1016/j.jct.2012.08.003)
